The target in experiment [1] is Adenosine receptor A1 (Rattus norvegicus) (UniProt P25099). Kind of experiment: Antagonist activity against adenosine A1 receptor in rat adipocytes.
The target of experiment [2] is Adenosine receptor A2 (Homo sapiens). Put plainly: Antagonistic activity against adenosine A2 receptor in human platelets.

The values that follow come from ChEMBL document CHEMBL1125093, “Structure-activity relationships of 8-cycloalkyl-1,3-dipropylxanthines as antagonists of adenosine receptors” (J Med Chem, 1990).

Structures are written as SMILES. pKi: −log10 of the molar value.

Compound `CCCn1c(=O)c2nc(C3CCCCC3C(=O)O)[nH]c2n(CCC)c1=O` (stereo in doubt; 4) gave a pKi in experiment [1] of under 5.52. The compound also yielded a Ki in experiment [2] of over 3 µM.

Take `CCCn1c(=O)c2nc(NC3CCCCC3)[nH]c2n(CCC)c1=O`: in experiment [1], the pKi was 7.85. Moreover, the Ki in experiment [2] came to 0.68 µM.

Turning to `CCCn1c(=O)c2nc(C3CCCC(N)C3)[nH]c2n(CCC)c1=O` (centres undefined), the pKi in experiment [1] was 7.30. Besides, the Ki in experiment [2] was over 10 µM.

For `CCCn1c(=O)c2nc(C3CCC3C(=O)O)[nH]c2n(CCC)c1=O` (centres undefined), the pKi in experiment [1] was 6.18. This compound displayed an inhibition constant (Ki) in experiment [2] of over 10 µM.

As to `CCCn1c(=O)c2nc(C3CCC(NC(C)=O)CC3)[nH]c2n(CCC)c1=O` (stereo in doubt; 10), the pKi in experiment [1] was 7.15. This compound gave a Ki in experiment [2] of 1 µM.

The compound `CCCn1c(=O)c2nc([C@H]3CC[C@H](CNC(C)=O)CC3)[nH]c2n(CCC)c1=O` showed a pKi in experiment [1] of 8.10.

`CCCn1c(=O)c2[nH]c(C34CC5CC(CC(C5)C3)C4)nc2n(CCC)c1=O` had a pKi in experiment [1] of 7.09.

In turn, `CCCn1c(=O)c2nc(C3CCCC3C(=O)O)[nH]c2n(CCC)c1=O` (stereo in doubt; 17) gave a pKi in experiment [1] of 6.85. The Ki in experiment [2] was over 10 µM.

In turn, `CCCn1c(=O)c2nc(CC3CCCC3)[nH]c2n(CCC)c1=O` gave a pKi in experiment [1] of 7.16. In addition, the inhibition constant Ki in experiment [2] is over 10 µM.

`CCCn1c(=O)c2nc(NC3CCCC3)[nH]c2n(CCC)c1=O` showed a pKi in experiment [1] of 8.10. Also, in experiment [2], the Ki stood at 0.13 µM.

In turn, `CCCn1c(=O)c2nc(C3CCCCC3C(=O)O)[nH]c2n(CCC)c1=O` (stereo in doubt; 3) had a negative logarithm of the Ki (pKi) in experiment [1] of under 5.00. Further, the inhibition constant Ki in experiment [2] is over 10 µM.

`CCCn1c(=O)c2nc(C3=C(C(=O)O)CCC3)[nH]c2n(CCC)c1=O`: in experiment [1], the pKi is under 5.00. The compound further registered a Ki in experiment [2] of over 10 µM.

As for `CCCn1c(=O)c2nc(C3CCCC(NC(C)=O)C3)[nH]c2n(CCC)c1=O` (centres undefined), in experiment [1], the pKi is 7.39. The same compound yielded a Ki in experiment [2] of 1 µM.

The compound `CCCn1c(=O)c2nc(C3CCCC3C(=O)N(C)CCN(C)C)[nH]c2n(CCC)c1=O` (stereo in doubt; 20) gave a negative-log Ki (pKi) in experiment [1] of 7.28. In addition, the Ki in experiment [2] was over 10 µM.

Compound `CCCn1c(=O)c2nc(N3CCCCC3)[nH]c2n(CCC)c1=O` showed a pKi in experiment [1] of 7.66. In experiment [2], the Ki stood at 0.49 µM.

On to `CCCn1c(=O)c2nc(C3CCC(C(=O)OC)CC3)[nH]c2n(CCC)c1=O` (centres undefined), for which the pKi in experiment [1] is 6.89. Also, the inhibition constant Ki in experiment [2] turned out to be 0.56 µM.

On to `CCCn1c(=O)c2nc(N3CCCC3)[nH]c2n(CCC)c1=O`, for which the pKi in experiment [1] was 7.12.

In experiment [1], `CCCn1c(=O)c2nc(C3CCC(C(=O)O)CC3)[nH]c2n(CCC)c1=O` (stereo in doubt; 2) had a pKi of 7.23. In experiment [2], this compound returned a Ki of 1.5 µM.

`CCCn1c(=O)c2nc(C3CCCC3C(=O)O)[nH]c2n(CCC)c1=O` (trans isomer) gave a pKi in experiment [1] of 7.00. For the same compound, the Ki in experiment [2] was over 10 µM.

Compound `CCCn1c(=O)c2[nH]c(C3CCC(N)CC3)nc2n(CCC)c1=O` (stereo in doubt; 7) gave a pKi in experiment [1] of 6.80.

`CCCn1c(=O)c2[nH]c(C3CCC(N)CC3)nc2n(CCC)c1=O` (stereo in doubt; 6): in experiment [1], the negative logarithm of the Ki (pKi) was 7.05.

In experiment [1], `CCCn1c(=O)c2nc(C3CCC(C(=O)O)CC3)[nH]c2n(CCC)c1=O` (stereo in doubt; 1) showed a pKi of 6.37. The compound further displayed a Ki in experiment [2] of over 10 µM.

The compound `CCCn1c(=O)c2nc(C3CCC(NC(C)=O)CC3)[nH]c2n(CCC)c1=O` (stereo in doubt; 9) showed a pKi in experiment [1] of 7.92. This compound also registered an inhibitory constant (Ki) in experiment [2] of over 10 µM.

`CCCn1c(=O)c2nc(C3CCC(C(=O)N(C)CCN(C)C)CC3)[nH]c2n(CCC)c1=O` (stereo in doubt; 15) gave a pKi in experiment [1] of 7.07. Further, the Ki in experiment [2] amounted to 0.45 µM.

Compound `CCCn1c(=O)c2nc(C3CCCC3C(=O)N(C)CCN(C)C)[nH]c2n(CCC)c1=O` (stereo in doubt; 19) had a pKi in experiment [1] of under 5.52. In addition, the Ki in experiment [2] was over 3 µM.

For `CCCn1c(=O)c2nc(C3CCC(C(=O)N(C)CCN(C)C)CC3)[nH]c2n(CCC)c1=O` (stereo in doubt; 14), in experiment [1], the pKi is 7.77. Also, the Ki in experiment [2] was 0.26 µM.

In experiment [1], `CCCn1c(=O)c2nc(NC3CCC3)[nH]c2n(CCC)c1=O` had a pKi of 8.59. In experiment [2], the inhibitory constant (Ki) amounted to 0.12 µM.

`CCCn1c(=O)c2nc(C3CCC(CN)CC3)[nH]c2n(CCC)c1=O` (centres undefined) showed a pKi in experiment [1] of 7.70.

Regarding `CCCNC(=O)C1CCC(c2nc3c([nH]2)c(=O)n(CCC)c(=O)n3CCC)CC1` (centres undefined), the pKi in experiment [1] was 7.07. Besides, the Ki in experiment [2] was over 3 µM.

`CCCn1c(=O)c2nc(C3CC3C)[nH]c2n(CCC)c1=O` (centres undefined) gave a pKi in experiment [1] of 7.96. In experiment [2], this compound displayed a Ki of over 10 µM.

Broadly, the pKi is the Ki on a negative log10 scale, so that one unit is a factor of ten. The term Ki denotes the dissociation constant of the complex between target and ligand, obtained from inhibition or displacement. Higher therefore signals lower affinity.
